Results reported in patent publication US12269831B2, “Modulators of cystic fibrosis transmembrane conductance regulator” (Vertex Pharmaceuticals Incorporated, priority 2020, dated 2025).
Like-named read-outs stand apart in the source and are kept apart here.

Conditions: 14-membered ring

SMILES: CC(C)(C)OC(=O)N(C(=O)OC(C)(C)C)c1cc(C(F)(F)F)c2nc1-c1nnc(o1)[C@@](OCc1ccccc1)(C(F)(F)F)CCC=CC[C@@H](COCc1ccccc1)O2 (mixture of isomers)
- ring closure, isolated yield (from C=CCC[C@@](OCc1ccccc1)(c1nnc(-c2nc(O[C@@H](CC=C)COCc3ccccc3)c(C(F)(F)F)cc2N(C(=O)OC(C)(C)C)C(=O)OC(C)(C)C)o1)C(F)(F)F, rcm bond, Zhan-1B, DCE, 2.78 mM, 60.0 °C, 5.5 h): 45%

SMILES: CC(C)(C)OC(=O)Nc1cc(C(F)(F)F)c2nc1-c1nnc(o1)C(OCc1ccccc1)(C(F)(F)F)CC=CCc1ccccc1O2 (mixture of isomers)
- ring closure, isolated yield (from C=CCc1ccccc1Oc1nc(-c2nnc(C(CC=C)(OCc3ccccc3)C(F)(F)F)o2)c(NC(=O)OC(C)(C)C)cc1C(F)(F)F, rcm bond, Grubbs II, DCE, 5.12 mM, 70.0 °C, 21.0 h): 62%

SMILES: CC(C)(C)OC(=O)Nc1cc(C(F)(F)F)c2nc1-c1nnc(o1)[C@@](OCc1ccccc1)(C(F)(F)F)CC=CCCCO2 (mixture of isomers)
- ring closure, isolated yield (from C=CCCCOc1nc(-c2nnc([C@@](CC=C)(OCc3ccccc3)C(F)(F)F)o2)c(NC(=O)OC(C)(C)C)cc1C(F)(F)F, rcm bond, Zhan-1B, DCE, 6.7 mM, 60.0 °C, 4.0 h): 65%

SMILES: C[C@@H]1CCC=CC(O)C(OCc2ccccc2)(C(F)(F)F)C2=NN=C(O2)c2nc(c(C(F)(F)F)cc2N)O1 (mixture of isomers)
- ring closure, isolated yield (from C=CCC[C@@H](C)Oc1nc(-c2nnc(C(OCc3ccccc3)(C(O)C=C)C(F)(F)F)o2)c(N)cc1C(F)(F)F, rcm bond, Zhan-1B, DCE, 3.1 mM, 70.0 °C, 3.5 h): 76%

SMILES: CC(C)(C)OC(=O)N(C(=O)OC(C)(C)C)c1cc(C(F)(F)F)c2nc1-c1nnc(o1)[C@@](OCc1ccccc1)(C(F)(F)F)CCC=CCC(Cc1ccc(F)cc1)O2 (mixture of isomers)
- ring closure, isolated yield (from C=CCC[C@@](OCc1ccccc1)(c1nnc(-c2nc(OC(CC=C)Cc3ccc(F)cc3)c(C(F)(F)F)cc2N(C(=O)OC(C)(C)C)C(=O)OC(C)(C)C)o1)C(F)(F)F, rcm bond, Zhan-1B, DCE, 2.35 mM, 60.0 °C, 1.0 h): 63%

SMILES: C[C@@H]1CCOCCC(OCc2ccccc2)(C(F)(F)F)C2=NN=C(O2)c2nc(c(C(F)(F)F)cc2N(C(=O)OC(C)(C)C)C(=O)OC(C)(C)C)O1 (stereo partly drawn)
- ring closure, isolated yield (from C[C@H](O)CCOCCC(OCc1ccccc1)(c1nnc(-c2nc(O)c(C(F)(F)F)cc2N(C(=O)OC(C)(C)C)C(=O)OC(C)(C)C)o1)C(F)(F)F, ether bond, PPh3/DIAD, toluene, 10.2 mM, 7.0 h): 57%

SMILES: O=[N+]([O-])c1cc(C(F)(F)F)c2nc1-c1nnc(o1)[C@@](OCc1ccccc1)(C(F)(F)F)CCC=CCC(C1CC1)O2 (mixture of isomers)
- ring closure, isolated yield (from C=CCC[C@@](OCc1ccccc1)(c1nnc(-c2nc(OC(CC=C)C3CC3)c(C(F)(F)F)cc2[N+](=O)[O-])o1)C(F)(F)F, rcm bond, Zhan-1B, DCE, 1.6 mM, 70.0 °C, 2.25 h): 59%

SMILES: CC1(C)CC=CC[C@](OCc2ccccc2)(C(F)(F)F)C2=NN=C(O2)c2nc(c(C(F)(F)F)cc2N(C(=O)OC(C)(C)C)C(=O)OC(C)(C)C)OC1 (mixture of isomers)
- ring closure, isolated yield (from C=CCC(C)(C)COc1nc(-c2nnc([C@@](CC=C)(OCc3ccccc3)C(F)(F)F)o2)c(N(C(=O)OC(C)(C)C)C(=O)OC(C)(C)C)cc1C(F)(F)F, rcm bond, Zhan-1B, toluene, 2.2 mM, 110.0 °C, 4.0 h): 10%

SMILES: C[C@H]1CC=CCC[C@](OCc2ccccc2)(C(F)(F)F)C2=NN=C(O2)c2nc(c(C(F)(F)F)cc2NC(=O)OC(C)(C)C)O1 (mixture of isomers)
- ring closure, isolated yield (from C=CCC[C@@](OCc1ccccc1)(c1nnc(-c2nc(O[C@@H](C)CC=C)c(C(F)(F)F)cc2NC(=O)OC(C)(C)C)o1)C(F)(F)F, rcm bond, Hoveyda-Grubbs II, toluene, 5.08 mM, 100.0 °C, 1.0 h): 22%

SMILES: C[C@@H]1CC=CCC[C@](OCc2ccccc2)(C(F)(F)F)C2=NN=C(O2)c2nc(c(C(F)(F)F)cc2Cl)O1 (mixture of isomers)
- ring closure, isolated yield (from C=CCC[C@@](OCc1ccccc1)(c1nnc(-c2nc(O[C@H](C)CC=C)c(C(F)(F)F)cc2Br)o1)C(F)(F)F, rcm bond, Zhan-1B, DCE, 2.2 mM, 60.0 °C, 2.0 h): 47%

SMILES: CC1CC=CCCC(OCc2ccccc2)(C(F)(F)F)C2=NN=C(O2)c2nc(c(C(F)(F)F)cc2NC(=O)OC(C)(C)C)O1 (mixture of isomers)
- ring closure, isolated yield (from C=CCCC(OCc1ccccc1)(c1nnc(-c2nc(OC(C)CC=C)c(C(F)(F)F)cc2NC(=O)OC(C)(C)C)o1)C(F)(F)F, rcm bond, Zhan-1B, DCE, 4.57 mM, 70.0 °C, 16.0 h): 36%

SMILES: C[C@@H]1COCCC[C@](OCc2ccccc2)(C(F)(F)F)C2=NN=C(O2)c2nc(c(C(F)(F)F)cc2N(C(=O)OC(C)(C)C)C(=O)OC(C)(C)C)O1
- ring closure, isolated yield (from tert-butyl N-[2-[5-[(1R)-1-benzyloxy-4-[(25)-2-hydroxypropoxy]-1-(trifluoromethyl)butyl]-1,3,4-oxadiazol-2-yl]-6-hydroxy-5-(trifluoromethyl)-3-pyridyl]-N-tert-butoxycarbonyl-carbamate, ether bond, PPh3/DIAD, THF, 15.0 mM): 50%
